Here are results for eight molecules from patent US20260144829A1, “SYNBIOTIC COMPOSITION, METABOLITES, AND METHOD OF PREVENTING AND TREATING OBESITY-RELATED DISEASE” (priority 2023, published 2026).

Molecules are shown by their SMILES. “Also recorded” adds a separate entry of the source. Residues, ends and D or L forms follow the SMILES beside them.

One data set has as its system HepG2 cells. Kind of data set: Lipid accumulation assay in uric acid-treated HepG2 cells. In kind it is cell-based. Conditions: 120 μg/mL uric acid, 24 hours. Here is the method:
The lipid accumulation assay was done. Briefly, HepG2 cells at 70% confluence were incubated in RPMI 1640 medium containing 120 μg/mL uric acid for 24 hours, which was used to increase the lipid accumulation. After being washed by PBS buffer, the cells were maintained in new RPMI 1640 medium containing the metabolites (5.0, 1.0, 0.5, 0.1, and 0.05 μg/mL, the dried metabolites were redissolved in RPMI 164 medium) and 120 μg/mL uric acid for another 24 hours. Cells maintained in pure RPMI 1640 medium were employed as control.
To further identify bioactive metabolites produced by B. longum, we applied a fractionation approach followed by liquid chromatography-mass spectrometry (LC-MS) coupled with in vitro screening strategy (FIG. 2A). Briefly, the extraction method of B. longum BCRC12585 metabolites (that is, B. longum metabolites, or B. longum crude extract) is the same as in Example 2, and then twenty-five fractions derived from B. longum metabolites were prepared by pre-HPLC column, followed by individually testing the anti-lipid accumulation activity with HepG2 cells. […] To identify candidate metabolites from each active fraction, further analysis was performed by using liquid chromatography coupled with high resolution mass spectrometry (LC-MS/MS). […] Collectively, we integrated in vitro, in vivo, and metabolomics data to identify the bioactive metabolites which could be produced by B. longum.

In another data set the test system is hepatic gene expression. Kind of data set: Hepatic RNA-sequencing of treated mice. In kind it is in vivo. As to conditions: liver. The procedure:
To obtain a more comprehensive understanding of MTA's potential as an antiobesity molecule, hepatic RNA-sequencing was performed on mice treated with both MTA and B. longum to determine its underlying mechanism for preventing obesity. […] Then, we conducted an in-depth analysis of the regulated genes involved in these biological functions. […] Likewise, overexpression of inhibin beta-A, which is encoded by the Inhba gene, can stimulate mitochondrial energy metabolism and increase energy expenditure.
Bile acids are regarded as important signaling molecules to regulate fatty acid, cholesterol, energy and glucose homeostasis; therefore, enhancing bile acid synthesis may be a strategy to avoid diet-induced obesity. Furthermore, the increased expression of Cyp7a1, which encodes the rate-limiting enzyme in the classic bile acid synthesis pathway, prevents high-fat diet-induced obesity, insulin resistance and atherosclerosis.

Take `Nc1ncnc2c1ncn2[C@@H]1O[C@H](CO)[C@@H](OP(=O)(O)O)[C@H]1O` [3-AMPP, 3-adenosine monophosphate]: the “lipid accumulation in HepG2 cells” value with HepG2 cells was “significantly inhibited”. The same measure, in the same setting: the entry for `N[C@@H](CCC(=O)O)C(=O)O` [GA, glutamic acid] is “significantly inhibited”. With `CSC[C@H]1O[C@@H](n2cnc3c(N)ncnc32)[C@H](O)[C@@H]1O` [MTA, 5′-s-methyl-5′-thioadenosine], the “expression of Cyp7a1” value in the data set on hepatic gene expression was “up-regulated”. Consider `CC(C)[C@H](NC(=O)[C@@H]1CCC(=O)N1)C(=O)O` [Pyro-glu-val, pyro-glutamyl-valine] (HELM PEPTIDE1{[Glp].V}$$$$V2.0), for which, in the data set on HepG2 cells, the “lipid accumulation in HepG2 cells” value is listed as “significantly inhibited”. Same read-out and setting: the entry for `O=C1CC[C@@H](C(=O)O)N1` [PyroGA, pyroglutamic acid] is “significantly inhibited”. On the same count and under the same terms, the result for `Nc1ncnc2c1ncn2[C@@H]1O[C@H](CO)[C@@H](O)[C@H]1O` [adenosine] reads “significantly inhibited”. Same read-out and setting: the entry for `CSCC[C@H](N)C(=O)O` [methionine] is “significantly inhibited; also recorded: exhibited a lipid-lowering effect”; for `CC(C)[C@H](N)C(=O)O` [valine] it is “significantly inhibited”.
